The source of these data is ChEMBL document CHEMBL1201862, “PubChem BioAssay data set” (2004).

What all share (assay): growth of human tumour cells (NCI), 48 h
The subject of assay [1] is MOLT-4.
Assay [2] relates to SF-539.
For assay [3], the system named is OVCAR-8.
In assay [4] the test system is NCI-H522.
Assay [5] has as its system COLO 205.
Assay [6] deals with SF-295.
Assay [7] concerns KM12.
For assay [8], the system named is HL-60.
Assay [9] deals with M14.
For assay [10], the system named is SK-MEL-2.
Assay [11] relates to OVCAR-4.
Assay [12] deals with UACC-257.
Assay [13] deals with SK-MEL-5.
Assay [14] concerns RPMI-8226.
For assay [15], the system named is UACC-62.
Assay [16] deals with SW-620.
Assay [17] relates to SNB-75.

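These data come from cells grown in 96-well plates and exposed to compound for 48 hours at five concentrations. Abbreviation: GI50, concentration required for 50% inhibition of growth.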 Calls of active or inactive are those of the source. No stated cut-off is given here; in the data, active = GI50 up to about 1.1 µM and inactive = higher.

Turning to `COc1cccc(NC(=O)CC(=O)N2N=C(N(CCC#N)c3ccccc3C)CC2c2ccccc2)c1` (stereo not given), the GI50 in assay [1], in [2], in [3], in assay [4], in assay [5] and in [6] was > 100 µM (inactive) in each case. Also, the GI50 in assay [7], in [8], in assay [9], in [10], in assay [11] and in [12] was > 100 µM (inactive) throughout. The GI50 in assay [13], in [14], in assay [15], in [16] and in [17] was > 100 µM (inactive) throughout.

With `Nc1ncnc2c1ncn2C1OC(CSCC(F)(F)F)C(O)C1O` (stereo not given), the GI50 in assay [1] is > 100 µM (inactive); in assay [2], > 100 µM (inactive); in assay [3], > 100 µM (inactive); in assay [4] it was 45 µM (inactive); in [5] it was > 100 µM (inactive); in assay [6], > 100 µM (inactive). Further, the GI50 in assay [7], in assay [8], in assay [9], in assay [10], in assay [11] and in assay [12] was > 100 µM (inactive) each time. Further, the GI50 in assay [13], in [14], in assay [15], in assay [16] and in assay [17] was > 100 µM (inactive) in each case.

Turning to `COC1OC(CO)C(O)C(NC(=O)N(C)N=O)C1O` (stereo not given), the GI50 in [1], in assay [2], in assay [3], in assay [4], in assay [5] and in assay [6] was > 100 µM (inactive) in each case. Further, the GI50 in [7], in assay [8], in assay [9], in assay [10], in assay [11] and in assay [13] was > 100 µM (inactive) throughout. Moreover, the GI50 in assay [14], in assay [16] and in assay [17] was > 100 µM (inactive) in each case.

`CN(C)C(=S)/N=c1\ss/c(=N\S(=O)(=O)c2ccccc2)n1C`: the GI50 in assay [1], in assay [2], in assay [3], in assay [4], in assay [6] and in assay [7] was > 100 µM (inactive) in each case. For the same compound, the GI50 in assay [8], in assay [9], in [10], in assay [11], in assay [12] and in assay [13] was > 100 µM (inactive) each time. The GI50 was > 100 µM (inactive) in [14], > 100 µM (inactive) in [15], > 100 µM (inactive) in assay [16] and 39.2 µM (inactive) in assay [17].

In the case of `N#C/C(=C\c1ccccc1O)C(N)=O`, the GI50 in assay [1] is 62.7 µM (inactive); in assay [2], > 100 µM (inactive); in assay [3] it was > 100 µM (inactive); in assay [4] it was 21.9 µM (inactive); in assay [5], 61.8 µM (inactive); in assay [6], > 100 µM (inactive). The GI50 is 56.5 µM (inactive) in assay [7]; 20.1 µM (inactive) in [8]; > 100 µM (inactive) in [9]; 62.1 µM (inactive) in assay [10]; > 100 µM (inactive) in [11]; 50.7 µM (inactive) in assay [12]. For the same compound, the GI50 in assay [13] was > 100 µM (inactive); in [14] it was 60.8 µM (inactive); in assay [15], 50.1 µM (inactive); in assay [16], 76.2 µM (inactive); in assay [17], 28.1 µM (inactive).

As for `CN(C)CCNC(=O)c1cccc2nc3cc(Cl)ccc3nc12`, the GI50 in assay [1] is 0.378 µM (active); in [2], 3.12 µM (inactive); in assay [3], 1.99 µM (inactive); in assay [4], 2.92 µM (inactive); in assay [5], 1.86 µM (inactive); in assay [6], 3.25 µM (inactive). In addition, the GI50 in [7] was 2.51 µM (inactive); in assay [8], 3.32 µM (inactive); in assay [9], 3 µM (inactive); in [10], 2.47 µM (inactive); in assay [11] it was 2.42 µM (inactive); in [12], 2.82 µM (inactive). Besides, the GI50 is 3.19 µM (inactive) in assay [13]; 3.07 µM (inactive) in [14]; 3.69 µM (inactive) in [15]; 1.06 µM (active) in assay [16]; 2.52 µM (inactive) in [17].

`N#CC(C(=O)CCCC(=O)Nc1ccc(Cl)cc1Cl)c1ccc(Cl)cc1` (stereo not given): the GI50 in assay [1], in assay [2], in [3], in assay [4], in [5] and in assay [6] was > 100 µM (inactive) in each case. The GI50 in [7], in [8], in [9], in assay [10], in [11] and in [12] was > 100 µM (inactive) throughout. In addition, the GI50 in assay [14], in assay [15], in [16] and in [17] was > 100 µM (inactive) in each case.

For the compound `COC1(OC)C2(Cl)C(Cl)=C(Cl)C1(Cl)C1C=CC=CC12` (stereo not given), the GI50 in assay [2] was > 100 µM (inactive); in [3], > 100 µM (inactive); in assay [4], 23.8 µM (inactive); in assay [5], 69.8 µM (inactive); in assay [6], > 100 µM (inactive); in assay [7], > 100 µM (inactive). Besides, the GI50 is 55.8 µM (inactive) in assay [8]; 57.5 µM (inactive) in assay [9]; 24.1 µM (inactive) in assay [10]; > 100 µM (inactive) in assay [11]; > 100 µM (inactive) in assay [12]; 53.2 µM (inactive) in assay [13]. Further, the GI50 was 39.7 µM (inactive) in [14], 73.5 µM (inactive) in assay [15], 95.9 µM (inactive) in [16] and 66.5 µM (inactive) in [17].

For the compound `CC1(C)C2CCC13CS(=O)(=O)N1O[C@]13C(=O)O2` (stereo not given in full), the GI50 in assay [1], in assay [2], in [3], in [4], in assay [5] and in assay [6] was > 100 µM (inactive) each time. Further, the GI50 in [7], in assay [8], in assay [10], in [11], in assay [12] and in assay [14] was > 100 µM (inactive) each time. Besides, the GI50 is > 100 µM (inactive) in assay [16] and 60.8 µM (inactive) in assay [17].
